We go through 72 compounds from US9512125B2, “Substituted pyrazolo[3.4-D] pyrimidines as anti-inflammatory agents” (THE REGENTS OF THE UNIVERSITY OF CALIFORNIA, priority 2004, dated 2016).

The subject of assay [1] is HUVEC with or without PBMC (3C, 4H, SAG and LPS systems). Briefly: BioMAP inflammation model systems (3C, 4H, SAG, LPS), cell-based ELISA profiling. More on the design: species or system human. The following applies: 4 systems (3C, 4H, SAG, LPS); concentration of 5 micromolar; 24 h stimulation. On the technique in general: In an ELISA, binding on a coated surface is turned into a signal by an enzyme label.

The subject of assay [2] is monocyte activation. In words: Monocyte activation inhibition in cell-based (BioMAP) assay. The arrangement: species or system human. The settings on record: weakly inhibit T cell activation, strongly inhibit monocyte activation, MCP-1 and IL-8 (at least 50%) in a cell-based assay. How it is done: Human umbilical vein endothelial cells (HUVEC) were cultured as described in Kunkel et al., 2004, FASEB J 18:1279-1281. Peripheral blood mononuclear cells (PBMC) were prepared from buffy coats (Stanford Blood Bank, Stanford, Calif.) by centrifugation over Hisopaque-1077 (Sigma). Four assay systems, 3C, 4H, SAG, and LPS, were used. For the 3C system, HUVEC were cultured for 24 h in microtiter plates (Falcon; BD Biosciences), in the presence of cytokines IL-1β (1 ng/ml), TNF-α (5 ng/ml), and IFN-γ (20 ng/ml). For the 4H system, HUVEC were cultured in the presence of IL-4 (5 ng/ml) and histamine (10 μM). For the SAG system, HUVEC were cultured with PBMC (7.5×10^4) and SAG (20 ng/ml). For the LPS system, HUVEC were cultured with PBMC (7.5×10^4) and LPS (2 ng/ml). Compounds were added 1 h before stimulation and were present during the entire 24-h stimulation period. Cell-based enzyme-linked immunosorbent assay (ELISAs) were carried out as described. (See Kunkel et al., 2004, FASEB J 18:1279-1281.)

Regarding `CC(C)(C)n1nc(-c2ccc([N+](=O)[O-])cc2)c2c(N)ncnc21` [Compound 18], in assay [1], the Activity entry is recorded as “+”.
Same read-out and setting: in the case of `CC(C)(C)n1nc(C2CCCC2)c2c(N)ncnc21` [Compound 38] it was “+”; in that of `CCCCCn1nc(Cc2ccccc2Cl)c2c(N)ncnc21` [Compound 84], “active”.
On the same count and under the same terms, then `CC(C)(C)n1nc(Cc2cccc(O)c2)c2c(N)ncnc21` [Compound 24], with “+”; and `Nc1ncnc2[nH]nc(-c3ccc4ccccc4c3)c12` [Compound 47], with “active”; and `Cc1ccc(Cc2nn(C(C)(C)C)c3ncnc(N)c23)cc1` [Compound 33], with “+”.
For `COCCn1nc(-c2ccccc2)c2c(N)ncnc21` [Compound 51], the Activity result in assay [1] is “+”.
For `Cc1cccc(Cc2nn(C(C)(C)C)c3ncnc(N)c23)c1C` [Compound 6], the outcome in assay [1] was active.
The same measure, in the same setting: in the case of `Cc1ccc(C)c(Cc2nn(C(C)(C)C)c3ncnc(N)c23)c1` [Compound 1] it was “+”; in that of `COc1ccc(Cc2nn(C(C)(C)C)c3ncnc(N)c23)cc1` [Compound 27], “+”; in that of `CC(C)(C)n1nc(-c2ccccc2OCc2ccccc2)c2c(N)ncnc21` [Compound 40], “+”.
`CC(C)(C)n1nc(Cc2ccc(F)cc2F)c2c(N)ncnc21` [Compound 78]: in assay [1], the result was active.
On the same count and under the same terms, in the case of `CC(C)(C)n1nc(Cc2cccc(F)c2F)c2c(N)ncnc21` [Compound 82] it was “active”.
In the case of `Cc1cccc(Cc2nn(C(C)(C)C)c3ncnc(N)c23)c1` [Compound 32], the Activity entry in assay [1] was “+”.
On the same count and under the same terms, then `Nc1ncnc2c1c(Cc1ccccc1Cl)nn2C1CCC(O)CC1` (centres unmarked) [Compound 75], with “+”.
As for `CC(C)(C)n1nc(Cc2ccccc2Br)c2c(N)ncnc21` [Compound 59], the result in assay [1] was active. The “monocyte activation inhibitor classification” value in assay [2] was “monocyte activation inhibitor”.
Taken in the same sequence, the figures for `CC(C)(C)n1nc(Cc2ccccc2)c2c(N)ncnc21` [Compound 36] were “active” and “monocyte activation inhibitor”.
For `Cc1ccccc1Cc1nn(C(C)(C)C)c2ncnc(N)c12` [Compound 31], in that order: “active” and “monocyte activation inhibitor”.
Take `CC(C)(C)n1nc(C2(c3ccccc3Cl)CC2)c2c(N)ncnc21` [Compound 77]: the result in assay [1] was active.
Same read-out and setting: in the case of `Nc1ncnc2c1c(Cc1ccccc1Cl)nn2CCCCO` [Compound 74] it was “+”.
Same read-out and setting: in the case of `CCCCn1nc(Cc2ccccc2Cl)c2c(N)ncnc21` [Compound 89] it was “active”; in that of `COC(=O)Cn1nc(Cc2cccc3ccccc23)c2c(N)ncnc21` [Compound 42], “+”.
As to `CC(C)(C)n1nc(Cc2cc(F)ccc2F)c2c(N)ncnc21` [Compound 79], the result in assay [1] was active.
Same read-out and setting: then `CC(C)(C)n1nc(Cc2ccc(Cl)c(Cl)c2)c2c(N)ncnc21` [Compound 4], with “+”; and `CC(C)(C)n1nc(Cc2ccccc2O)c2c(N)ncnc21` [Compound 26], with “+”.
Still for that read-out and setting: then `Cc1sccc1Cc1n[nH]c2ncnc(N)c12` [Compound 66], with “active”.
Take `CCOCCn1nc(Cc2ccccc2Cl)c2c(N)ncnc21` [Compound 70]: the Activity entry in assay [1] is “+”.
On the same count and under the same terms, in the case of `COC(=O)CCCn1nc(Cc2ccccc2Cl)c2c(N)ncnc21` [Compound 73] it was “+”.
Turning to `CC(c1ccccc1)c1nn(C(C)(C)C)c2ncnc(N)c12` (centres unmarked) [Compound 34], the Activity entry in assay [1] is recorded as “+”.
Regarding `Nc1ncnc2c1c(Cc1ccccc1Cl)nn2C1CCCC1` [Compound 63], in assay [1], the result was active. Further, the “monocyte activation inhibitor classification” value in assay [2] is reported as “monocyte activation inhibitor”.
Turning to `COc1ccccc1Cc1nn(C(C)(C)C)c2ncnc(N)c12` [Compound 28], the Activity result in assay [1] is “+”.
For the compound `CC(C)(C)n1nc(-c2cccc(Oc3ccccc3)c2)c2c(N)ncnc21` [Compound 22], the result in assay [1] was active.
Still for that read-out and setting: in the case of `CC(C)(C)n1nc(Cc2ccc(O)cc2)c2c(N)ncnc21` [Compound 25] it was “+”; in that of `CC(C)(C)n1nc(-c2cccc(OCc3ccccc3)c2)c2c(N)ncnc21` [Compound 21], “+”; in that of `CC(C)(C)n1nc(Cc2ccc(Cl)cc2Cl)c2c(N)ncnc21` [Compound 68], “+”.
Still for that read-out and setting: in the case of `CC(C)(C)n1nc(-c2cc3ccccc3s2)c2c(N)ncnc21` [Compound 86] it was “active”; in that of `CC(C)n1cc(-c2cccc(O)c2)c2c(N)ncnc21` [Compound 50], “active”.
Take `CNc1ncnc2c1c(Cc1ccccc1Cl)nn2C(C)(C)C` [Compound 76]: the outcome in assay [1] was active. Further, the “monocyte activation inhibitor classification” value in assay [2] is listed as “monocyte activation inhibitor”.
As for `Cc1sccc1Cc1nn(C(C)(C)C)c2ncnc(N)c12` [Compound 67], the result in assay [1] was active.
Still for that read-out and setting: in the case of `CC(C)n1cc(-c2cccc(O)c2)c2c(NCc3ccccc3)ncnc21` [Compound 53] it was “active”; in that of `CC(C)(C)n1nc(Cc2c(F)cccc2F)c2c(N)ncnc21` [Compound 81], “active”.
The same measure, in the same setting: in the case of `CC(C)(C)n1nc(-c2ccc(-c3ccccc3)cc2)c2c(N)ncnc21` [Compound 88] it was “active”.
Turning to `CC(C)(C)n1nc(-c2cccc([N+](=O)[O-])c2)c2c(N)ncnc21` [Compound 16], in assay [1], the Activity result was “+”.
The same measure, in the same setting: in the case of `CCC(C)CCn1nc(Cc2ccccc2Cl)c2c(N)ncnc21` (centres unmarked) [Compound 85] it was “active”; in that of `Cc1cccc(-c2nn(C(C)(C)C)c3ncnc(N)c23)c1` [Compound 39], “active”; in that of `Cn1nc(Cc2ccccc2Br)c2c(N)ncnc21` [Compound 58], “+”.
Still for that read-out and setting: then `CC(C)(C)n1nc(Cc2c(Cl)cccc2Cl)c2c(N)ncnc21` [Compound 60], with “active”.
Turning to `CC(C)(C)n1nc(-c2cccc(OCc3c(Cl)cccc3Cl)c2)c2c(N)ncnc21` [Compound 20], in assay [1], the Activity entry was “+”.
For `Cc1cc(C)cc(Cc2nn(C(C)(C)C)c3ncnc(N)c23)c1` [Compound 3], in assay [1], the Activity result is “+”.
As for `CC(C)(C)n1nc(CC2CCCC2)c2c(N)ncnc21` [Compound 35], the Activity result in assay [1] is “+”.
Take `CC(C)(C)c1ccc(-c2nn(C(C)(C)C)c3ncnc(N)c23)cc1` [Compound 14]: in assay [1], the Activity result was “+”.
On the same count and under the same terms, in the case of `CN(C)c1ncnc2c1c(Cc1ccccc1Cl)nn2C(C)(C)C` [Compound 80] it was “active”.
Turning to `CC(C)(C)n1nc(Cc2ccccc2C(F)(F)F)c2c(N)ncnc21` [Compound 65], in assay [1], the outcome was active. Also, the “monocyte activation inhibitor classification” value in assay [2] is given as “monocyte activation inhibitor”.
In the case of `Cc1ccc(Cc2nn(C(C)(C)C)c3ncnc(N)c23)cc1C` [Compound 5], in assay [1], the Activity result was “+”.
`Cn1nc(Cc2ccccc2Cl)c2c(N)ncnc21` [Compound 61]: the Activity entry in assay [1] is on record as “+”.
On the same count and under the same terms, in the case of `CC(C)(C)n1nc(Cc2cccc(Br)c2)c2c(N)ncnc21` [Compound 2] it was “+”.
As to `CNc1ncnc2c1c(-c1cccc(N)c1)nn2C(C)C` [Compound 56], the Activity entry in assay [1] is listed as “+”.
`CC(C)n1nc(Cc2ccccc2Cl)c2c(N)ncnc21` [Compound 62]: the result in assay [1] was active. Besides, in assay [2], the “monocyte activation inhibitor classification” value is recorded as “monocyte activation inhibitor”.
With `CC(C)(C)n1nc(-c2ccccc2Cl)c2c(N)ncnc21` [Compound 37], the Activity result in assay [1] is listed as “+”.
Consider `CCCCCCn1nc(Cc2ccccc2Cl)c2c(N)ncnc21` [Compound 87], for which, in assay [1], the result was active.
Take `CC(C)(C)n1nc(Cc2ccccc2F)c2c(N)ncnc21` [Compound 64]: in assay [1], the outcome was active. The “monocyte activation inhibitor classification” value in assay [2] is recorded as “monocyte activation inhibitor”.
On to `CC(C)(C)n1nc(Cc2ccc(Cl)cc2)c2c(N)ncnc21` [Compound 23], for which the Activity result in assay [1] is reported as “+”.
Still for that read-out and setting: in the case of `CCCn1nc(Cc2ccccc2Cl)c2c(N)ncnc21` [Compound 83] it was “active”.
Same read-out and setting: then `CNc1ncnc2c1c(-c1cccc(O)c1)cn2C(C)C` [Compound 55], with “+”; and `Clc1ncnc2c1c(-c1ccccc1)nn2Cc1ccccc1` [Compound 57], with “+”.
`Nc1ncnc2[nH]nc(Cc3ccccc3)c12` [Compound 45]: in assay [1], the Activity result is on record as “+”.
Take `COCCn1nc(-c2cccc(O)c2)c2c(N)ncnc21` [Compound 52]: in assay [1], the result was active.
On the same count and under the same terms, then `Nc1ncnc2c1c(-c1ccccc1)nn2-c1ccccc1` [Compound 49], with “+”; and `Cc1n[nH]c2ncnc(N)c12` [Compound 46], with “+”; and `CC(C)Cc1n[nH]c2ncnc(N)c12` [Compound 44], with “+”.
Same read-out and setting: then `CC(C)(C)n1nc(CCc2ccccc2)c2c(N)ncnc21` [Compound 29], with “+”; and `CC(C)(C)n1nc(Cc2ccc(F)cc2Cl)c2c(N)ncnc21` [Compound 69], with “+”.
